Marks after values point to notes of the source that are not given here.
Key:
ICR derived male mice = assay: Wound healing in mouse model (full-thickness punch wound, topical treatment); type: in vivo; details: mean, n=5; for CT50 (wound half-closure time): linear regression
Method: Groups of ICR derived male mice (weighing 24±2 g) of 5 each were used. During testing period, the animals were single-housed in each cage. Under hexobarbital (90 mg/kg, IP) anesthesia, the shoulder and back region of each animal was shaved. A sharp punch (ID 12 mm) was applied to remove the skin including panniculus carnosus and adherent tissues. […] Test substances were administered topically immediately following wound injury once daily for a total of 10 consecutive days. The closure of the wound (%) and wound half-closure time (CT50) were determined by linear regression using Graph-Pad Prism™ (Graph Pad Software USA) and unpaired Student's t test was applied for comparison between treated and vehicle groups at each measurement time point on days 3, 5, 7, 9 and 11. Differences are considered of statistical significance at P<0.05 level.
Table 1 presents test data obtained for the compound 3-ethyl-1-propyl-8-(1-{[3-(trifluoromethyl)phenyl]methyl}pyrazol-4-yl)-1,3,7-trihydropurine-2,6-dione using the mouse model discussed above. Table 2 presents test date obtained using 1,3-dipropyl-8-(1-{[6-(trifluoromethyl)(3-pyridyl)]methyl}pyrazol-4-yl)- 1,3,7-trihydropurine-2,6-dione. In each case, the vehicle used for comparison was 1.5% carboxymethylcellulose in phosphate buffered saline at pH 7.4

Yorkshire pig = assay: Wound healing in pig model (full thickness excisions, total granulation tissue); type: in vivo
Method: Pig skin heals most like human skin and therefore testing on this animal provides an optimal paradigm to study cutaneous repair mechanisms. In this Example, the effect of an A2B antagonist on wound healing was tested in three pigs. PDGF (REGRANEX® (becaplermin) Gel 0.01%, Ortho-McNeil Pharmaceutical, Inc., Raritan, N.J.) was used as a positive control. The vehicle for drug delivery was 1.5% methylcellulose gel (KY gel). Control wounds received the vehicle alone. 3 different dosages of the A2B antagonist 3-ethyl-1-propyl-8-(1-{[3-(trifluoromethyl)phenyl]methyl}pyrazol-4-yl)-1,3,7-trihydropurine-2,6-dione, 1 μg/40 μl, 4 μg/40 μl, and 20 μg/40 μl were tested.
Method: Three Yorkshire pig ([…].) were used. On the day of surgery, a series of full thickness excisions were created alongside the paravertebral region on one side of the pig. Pigs were sacrificed at the end of 10 days and all wounds were removed for histological and immunohistochemical examinations.

Question: CCCn1c(=O)c2[nH]c(-c3cnn(Cc4ccc(C(F)(F)F)nc4)c3)nc2n(CCC)c1=O [1,3-dipropyl-8-(1-{[6-(trifluoromethyl)(3-pyridyl)]methyl}pyrazol-4-yl)-1,3,7-trihydropurine-2,6-dione] was tested. Which Percent wound closure (ICR derived male mice; Table 2, 0.5 μg/mouse topical once daily, Day 3) did it give?
Answer: 41.9* %

Question: What about the Percent wound closure (ICR derived male mice; Table 2, 0.5 μg/mouse topical once daily, Day 5) of the same molecule?
Answer: 53.5* %

Question: And the Percent wound closure (ICR derived male mice; Table 2, 0.5 μg/mouse topical once daily, Day 7)?
Answer: 65.8* %

Question: And the Percent wound closure (ICR derived male mice; Table 2, 0.5 μg/mouse topical once daily, Day 9)?
Answer: 77.1* %

Question: And the Percent wound closure (ICR derived male mice; Table 2, 0.5 μg/mouse topical once daily, Day 11)?
Answer: 85.3* %

Question: What about the “CT50 (wound half-closure time)” value (ICR derived male mice; Table 2, 0.5 μg/mouse topical once daily) of the same molecule?
Answer: 5.5* DAYS

Question: Which results are given for CCCn1c(=O)c2[nH]c(-c3cnn(Cc4cccc(C(F)(F)F)c4)c3)nc2n(CC)c1=O [3-ethyl-1-propyl-8-(1-{[3-(trifluoromethyl)phenyl]methyl}pyrazol-4-yl)-1,3,7-trihydropurine-2,6-dione]?
Answer: Percent wound closure (ICR derived male mice; 0.5 μg/mouse topical once daily, Day 1): 0%; Percent wound closure (ICR derived male mice; 0.5 μg/mouse topical once daily, Day 2): 43.2* %; Percent wound closure (ICR derived male mice; 0.5 μg/mouse topical once daily, Day 3): 51.2* %; Percent wound closure (ICR derived male mice; 0.5 μg/mouse topical once daily, Day 4): 56.0* %; Percent wound closure (ICR derived male mice; 0.5 μg/mouse topical once daily, Day 5): 58.8* %; Percent wound closure (ICR derived male mice; 0.5 μg/mouse topical once daily, Day 6): 64.3* %; Percent wound closure (ICR derived male mice; 0.5 μg/mouse topical once daily, Day 7): 72.5* %; Percent wound closure (ICR derived male mice; 0.5 μg/mouse topical once daily, Day 8): 78.2* %; Percent wound closure (ICR derived male mice; 0.5 μg/mouse topical once daily, Day 9): 82.5* %; Percent wound closure (ICR derived male mice; 0.5 μg/mouse topical once daily, Day 10): 83.1* %; Percent wound closure (ICR derived male mice; 0.5 μg/mouse topical once daily, Day 11): 87.1* %; CT50 (wound half-closure time) (ICR derived male mice; 0.5 μg/mouse topical once daily): 4.3* DAYS; Percent wound closure (ICR derived male mice; 2 μg/mouse topical once daily, Day 1): 0%; Percent wound closure (ICR derived male mice; 2 μg/mouse topical once daily, Day 2): 35.6* %; Percent wound closure (ICR derived male mice; 2 μg/mouse topical once daily, Day 3): 46.5* %; Percent wound closure (ICR derived male mice; 2 μg/mouse topical once daily, Day 4): 57.4* %; Percent wound closure (ICR derived male mice; 2 μg/mouse topical once daily, Day 5): 62.4%; Percent wound closure (ICR derived male mice; 2 μg/mouse topical once daily, Day 6): 68.3* %; Percent wound closure (ICR derived male mice; 2 μg/mouse topical once daily, Day 7): 73.3* %; Percent wound closure (ICR derived male mice; 2 μg/mouse topical once daily, Day 8): 78.8* %; Percent wound closure (ICR derived male mice; 2 μg/mouse topical once daily, Day 9): 82.2* %; Percent wound closure (ICR derived male mice; 2 μg/mouse topical once daily, Day 10): 89.2* %; Percent wound closure (ICR derived male mice; 2 μg/mouse topical once daily, Day 11): 91.6* %; CT50 (wound half-closure time) (ICR derived male mice; 2 μg/mouse topical once daily): 4.4* DAYS; Total granulation tissue, lowest dose versus highest dose (Yorkshire pig; 1 μg/40 μl versus 20 μg/40 μl topical, p=0.047): statistical difference; Total granulation tissue, highest dose versus placebo formulation (Yorkshire pig; 20 μg/40 μl topical, p=0.035): statistical difference; Effect on total granulation tissue (Yorkshire pig; topical 1, 4 and 20 μg/40 μl in 1.5% methylcellulose gel, 10 days, FIG. 1): stimulated the total granulation tissue in a dose-dependent fashion

Question: With PDGF as the molecule, how does the “Total granulation tissue, positive control versus placebo formulation” value (Yorkshire pig; REGRANEX (becaplermin) Gel 0.01%, p=0.034) read?
Answer: statistical difference
